Source: US20160243277A1, “FAST CURING POROUS MATERIALS AND CONTROL THEREOF” (priority 2013, published 2016)

Key:
[1] = test system: human mesenchymal stem cells (hMSCs); assay: Macromer extract dilution cytocompatibility test (modified ISO 10993-5, Live/Dead); conditions: undiluted (1X) extract from 10 minute media incubation with macromer, 24 hour culture
Experimental: Bone marrow-derived human mesenchymal stem cells (hMSCs) were obtained as Passage 1 in a cryovial from the Center for the Preparation and Distribution of Adult Stem Cells. Cells were cultured in growth media containing 16.5% fetal bovine serum (Atlanta Biologicals), 1% L-glutamine (Life Technologies) and Minimum Essential Media α (MEM α, Life Technologies) to about 80% confluency and utilized at Passages 5 and 6. Cells were trypsinized with 0.25% Trypsin-EDTA (Life Technologies) and seeded at a density of about 40,000 cells/cm^2 in a 96 well plate and allowed to adhere for about 24 hours. On the following day, about 100 μl of each macromer was incubated in about 300 μl growth media supplemented with 1 vol. % penicillin-streptomycin (Life Technologies) in a 48 well plate to mimic the ratio of organic to aqueous phase in the HIPE. After about 10 minute incubation at about 37° C., 5% CO2, the supernatant above the macromers was aspirated and diluted to about 10× and about 100× solutions. […] Extracted and diluted media (1, 10, and 100×) was then added to cells and cultured for an additional time, generally about 24 hours. Viability was assessed utilizing the Live/Dead® assay kit (registration with Molecular Probes Corporation, Eugene, Oreg.). The analysis used a plate reader (Tecan Infinite M200Pro) with excitation/emission wavelengths of 485/528 and 528/620 for calcein-AM and ethidium homodimer-1 dyes, respectively. Viability was normalized to cells on tissue culture polystyrene.

[2] = previously described PFDMA macromer; cited from earlier work

Row | Compound | hMSC viability after exposure to extract media [1] | Macromer viscosity [2]
1 | C=C(C)C(=O)OCCCCOC(=O)C(=C)C [BDMA, butane diol dimethacrylate] | less | –
2 | C=C(C)C(=O)OCCOC(=O)C(=C)C [EGDMA, ethylene glycol dimethacrylate] | less | –
3 | propylene fumarate dimethacrylate [PFDMA] | > 80% | about 125 cP
